Active and inactive are the calls of the source. The rule behind the calls is not given here.
Experiments:
[1] = system: NCI-H292; assay: Cytotoxicity against human NCI-H292 cells after 72 hrs by MTT assay; format: functional, cell-based; details: NCI-H292, 72 h
[2] = target: T1, Tubulin (Bos taurus) (UniProt Q6B856+Q862L2+Q862F3); assay: Stabilization of bovine tubulin polymerization at 10 uM after 20 mins by spectrophotometer analysis; format: protein assay
[3] = Cytotoxicity against human PC3 cells after 72 hrs by MTT assay; format: functional, cell-based; details: PC-3, 72 h
[4] = system: HT-29; assay: Cytotoxicity against human HT-29 cells after 72 hrs by MTT assay; format: functional, cell-based; details: HT-29, 72 h
[5] = Cytotoxicity against human MDA468 cells after 72 hrs by MTT assay; format: functional, cell-based; details: MDA-MB-468, 72 h
[6] = target: T1, Tubulin (Bos taurus); assay: Induction of bovine tubulin polymerization at 5 uM after 20 mins by spectrophotometer analysis; format: protein assay

| SMILES | IC50 [1] [µM] | also measured |
| --- | --- | --- |
| CC(=O)Nc1ccc2c(c1)c(CC(=O)NCCN(C)C)c(C)n2C(=O)c1ccc(Br)cc1 | 67.6 |  |
| CCCC(=O)Nc1ccc2c(c1)c(CC(=O)NCCN(C)C)c(C)n2S(=O)(=O)c1ccccc1 | 33.5 |  |
| CC(=O)O[C@H]1C(=O)[C@@]2(C)[C@H]([C@H](OC(=O)c3ccccc3)[C@]3(O)C[C@H](OC(=O)[C@H](O)[C@@H](NC(=O)c4ccccc4)c4ccccc4)C(C)=C1C3(C)C)[C@]1(OC(C)=O)CO[C@@H]1C[C@@H]2O [PACLITAXEL] | 0.006 | Activity [2]: Active |
| Cc1c(CC(=O)NCCN(C)C)c2cc(NC(=O)c3ccccc3)ccc2n1C(=O)c1ccc(Br)cc1 | 13.4 | IC50 [3]: 13.2 µM; IC50 [4]: 6.72 µM; IC50 [5]: 7.67 µM |
| Cc1c(CC(=O)NCCN(C)C)c2cc(NC(=O)c3cccc(OCc4ccccc4)c3)ccc2n1C(=O)c1ccc(Br)cc1 | 1.73 | IC50 [3]: 8.8 µM; IC50 [4]: 1.48 µM; IC50 [5]: 2.37 µM; Activity [6]: Active; Activity [2]: Active |
| CC(=O)Nc1ccc2c(c1)c(CC(=O)NCCN(C)C)c(C)n2S(=O)(=O)c1ccccc1 | 113 |  |
| CCC(=O)Nc1ccc2c(c1)c(CC(=O)NCCN(C)C)c(C)n2C(=O)c1ccc(Br)cc1 | 21.8 |  |
| Cc1c(CC(=O)NCCN(C)C)c2cc(NC(=O)c3cccc(OCc4ccccc4)c3)ccc2n1S(=O)(=O)c1ccccc1 | 19.3 |  |
| Cc1c(CC(=O)NCCN(C)C)c2cc(N)ccc2n1C(=O)c1ccc(Br)cc1 | 31.5 |  |
| Cc1c(CC(=O)NCCN(C)C)c2cc(NC(=O)c3ccc(C#N)cc3)ccc2n1C(=O)c1ccc(Br)cc1 | 20.8 |  |
| CCCC(=O)Nc1ccc2c(c1)c(CC(=O)NCCN(C)C)c(C)n2C(=O)c1ccc(Br)cc1 | 39.6 |  |
| Cc1c(CC(=O)NCCN(C)C)c2cc(NC(=O)OC(C)(C)C)ccc2n1S(=O)(=O)c1ccccc1 | 25.9 |  |
| Cc1c(CC(=O)NCCN(C)C)c2cc(NC(=O)OC(C)(C)C)ccc2n1C(=O)c1ccc(Br)cc1 | 14.9 |  |
| CCC(=O)Nc1ccc2c(c1)c(CC(=O)NCCN(C)C)c(C)n2S(=O)(=O)c1ccccc1 | 38.5 |  |
| Cc1c(CC(=O)NCCN(C)C)c2cc(NC(=O)C(C)C)ccc2n1S(=O)(=O)c1ccccc1 | 30.9 |  |
| Cc1c(CC(=O)NCCN(C)C)c2cc(NC(=O)c3ccc(Br)cc3)ccc2n1S(=O)(=O)c1ccccc1 | 55.5 |  |
| COc1ccc(C(=O)Nc2ccc3c(c2)c(CC(=O)NCCN(C)C)c(C)n3C(=O)c2ccc(Br)cc2)cc1 | 13.9 | IC50 [3]: 10.2 µM; IC50 [4]: 7.19 µM; IC50 [5]: 8.16 µM |
| Cc1c(CC(=O)NCCN(C)C)c2cc(N)ccc2n1S(=O)(=O)c1ccccc1 | 64.2 |  |

Source: ChEMBL document CHEMBL3745689, “Indomethacin derivatives as tubulin stabilizers to inhibit cancer cell proliferation” (Bioorg Med Chem, 2016)
